Experimental findings from patent US20240309005A1 (priority 2021, published 2024) are described below.

As a reminder, the inhibition is the change of the read-out against control, counted positive when it falls. Broadly, the solubility is how much of the substance goes into solution per volume. In general, half-life refers to the time in which the quantity being followed falls by half. Higher therefore signals slow decline. In general, Cmax refers to the maximum level reached in the sampled fluid or tissue. As usually defined, the bioavailability is dose-corrected exposure relative to a reference, in per cent. Read a low bioavailability as little systemic uptake.

The target of one data set is CYP1A2 (Homo sapiens (Human), UniProt P05177). Put plainly: in vitro. Particulars: microsomes.
CYP1A2, sequence (P05177 whole entry): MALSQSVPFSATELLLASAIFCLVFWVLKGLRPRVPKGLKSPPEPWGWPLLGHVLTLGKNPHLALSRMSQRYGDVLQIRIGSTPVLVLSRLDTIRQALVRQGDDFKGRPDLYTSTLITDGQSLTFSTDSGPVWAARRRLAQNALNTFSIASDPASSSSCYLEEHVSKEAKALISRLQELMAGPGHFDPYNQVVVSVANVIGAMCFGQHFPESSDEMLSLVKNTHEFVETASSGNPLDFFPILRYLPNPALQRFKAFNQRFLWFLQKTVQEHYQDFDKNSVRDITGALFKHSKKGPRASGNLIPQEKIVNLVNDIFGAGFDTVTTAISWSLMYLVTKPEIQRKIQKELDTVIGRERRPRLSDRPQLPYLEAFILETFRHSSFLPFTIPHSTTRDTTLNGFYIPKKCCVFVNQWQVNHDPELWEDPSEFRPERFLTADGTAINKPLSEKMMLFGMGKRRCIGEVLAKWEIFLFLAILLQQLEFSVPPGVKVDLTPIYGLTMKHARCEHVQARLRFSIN
The test system of another data set is CYP3A4. Kind of data set: in vitro. Particulars: human, microsomes.
The next data set concerns the target CYP2B6 (Homo sapiens (Human), UniProt P20813). Kind of data set: in vitro. The note with it: microsomes.
A further data set in a line: physchem. Particulars: 25 °C, kinetic from dmso stock.
For a further data set, the target named is CYP2D6 (Homo sapiens (Human), UniProt P10635). Put plainly: in vitro. The note with it: microsomes.
CYP2D6, sequence (P10635 whole entry): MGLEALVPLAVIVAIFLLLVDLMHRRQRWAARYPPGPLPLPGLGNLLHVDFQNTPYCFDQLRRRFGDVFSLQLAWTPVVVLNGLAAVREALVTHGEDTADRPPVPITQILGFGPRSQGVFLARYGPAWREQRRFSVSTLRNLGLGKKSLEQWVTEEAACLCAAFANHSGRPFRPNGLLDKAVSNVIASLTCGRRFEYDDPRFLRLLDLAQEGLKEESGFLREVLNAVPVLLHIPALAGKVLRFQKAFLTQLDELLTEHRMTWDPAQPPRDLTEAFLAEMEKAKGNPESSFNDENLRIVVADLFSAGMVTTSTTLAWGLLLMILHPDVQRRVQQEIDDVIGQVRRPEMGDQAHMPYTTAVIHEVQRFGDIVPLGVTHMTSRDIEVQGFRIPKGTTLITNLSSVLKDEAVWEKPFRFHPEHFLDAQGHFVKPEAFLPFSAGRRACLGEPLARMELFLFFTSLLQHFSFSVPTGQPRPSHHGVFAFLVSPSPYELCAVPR
The target of a further data set is CYP2C9 (Homo sapiens (Human), UniProt P11712). Kind of data set: in vitro. The note with it: microsomes.
CYP2C9, sequence (P11712 whole entry): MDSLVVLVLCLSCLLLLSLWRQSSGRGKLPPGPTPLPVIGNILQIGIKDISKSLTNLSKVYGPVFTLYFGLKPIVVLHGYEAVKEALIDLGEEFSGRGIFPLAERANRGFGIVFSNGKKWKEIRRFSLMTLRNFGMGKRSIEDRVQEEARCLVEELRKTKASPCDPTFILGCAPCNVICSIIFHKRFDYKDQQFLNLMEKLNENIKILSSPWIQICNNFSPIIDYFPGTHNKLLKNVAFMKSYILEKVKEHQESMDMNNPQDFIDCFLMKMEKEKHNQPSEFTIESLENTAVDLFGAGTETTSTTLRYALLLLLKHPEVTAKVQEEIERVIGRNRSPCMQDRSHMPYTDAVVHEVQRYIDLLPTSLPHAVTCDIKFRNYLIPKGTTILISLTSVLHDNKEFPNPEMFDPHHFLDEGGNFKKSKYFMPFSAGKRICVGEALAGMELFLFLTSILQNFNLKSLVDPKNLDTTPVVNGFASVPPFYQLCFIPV
A short description of data set [1]: in vivo. Particulars: male, CD1, mouse; for Cmax / bioavailability: po, 30 mg/kg.
Data set [2] can be described thus: in vivo. The note with it: male, SD, rat; for bioavailability / Cmax: po, 30 mg/kg.
For data set [3] the following is noted: male, SD, in vivo.

The structures appear in SMILES notation. Converted amounts (≈) assume the structure as drawn.

CYP2B6, sequence (P20813 whole entry): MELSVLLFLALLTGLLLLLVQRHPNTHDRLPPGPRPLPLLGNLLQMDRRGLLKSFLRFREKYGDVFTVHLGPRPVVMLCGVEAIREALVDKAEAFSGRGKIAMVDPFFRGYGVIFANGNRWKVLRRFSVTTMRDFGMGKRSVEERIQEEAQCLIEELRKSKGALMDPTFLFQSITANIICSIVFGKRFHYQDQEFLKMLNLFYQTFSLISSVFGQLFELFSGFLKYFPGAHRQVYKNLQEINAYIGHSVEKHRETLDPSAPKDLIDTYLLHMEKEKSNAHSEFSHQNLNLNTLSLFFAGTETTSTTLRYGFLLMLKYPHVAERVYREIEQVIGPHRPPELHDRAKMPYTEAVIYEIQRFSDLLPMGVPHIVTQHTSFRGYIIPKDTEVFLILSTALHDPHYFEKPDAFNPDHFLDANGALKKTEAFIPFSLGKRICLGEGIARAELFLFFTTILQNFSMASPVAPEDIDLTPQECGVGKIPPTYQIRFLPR

Consider `Cc1n[nH]c2nc(-c3ccc(NS(=O)(=O)N4CCCC4)cc3)nc(OC3CCN(C(C)C)CC3)c12` [Compound 2, N-(4-(4-((1-isopropylpiperidin-4-yl)oxy)-3-methyl-1H-pyrazolo[3,4-d]pyrimidin-6-yl)phenyl)pyrrolidine-1-sulfonamide], for which the inhibition at 20 min, 10 µM against CYP1A2 is 5.9%; at CYP2B6, -5%; at CYP2D6 it was 7.3%; against CYP2C9, 13%. The inhibition at 5 min, 10 µM with CYP3A4 amounted to 7%. Besides, the inhibition at 10 min, 10 µM with CYP3A4 worked out at 13%. For the same molecule, the solubility at 2 h in the data set “physchem” (pH 5, fessif) turned out to be 291 µM (≈ 145 µg/mL); in “physchem” (pH 7.4, aqueous buffer) it was 59.1 µM (≈ 29.5 µg/mL).

Take `Cc1n[nH]c2nc(-c3ccc(NS(=O)(=O)c4cc(C(F)(F)F)ccn4)cc3)nc(O[C@@H]3CCN(C)C[C@@H]3F)c12` [Compound 63, N-[4-(4-{[(3S,4R)-3-fluoro-1-methylpiperidin-4-yl]oxy}-3-methyl-1H-pyrazolo[3,4-d]pyrimidin-6-yl)phenyl]-4-(trifluoromethyl)pyridine-2-sulfonamide]: the inhibition at 20 min, 10 µM on CYP1A2 amounted to 2.4%; against CYP2B6, 12%; against CYP2D6, 7.5%; at CYP2C9 it was 65%. Also, the inhibition at 5 min, 10 µM in the data set with CYP3A4 was -24%. Moreover, the inhibition at 10 min, 10 µM in the data set on CYP3A4 was -2%. Moreover, the solubility at 2 h was determined as 205 µM (≈ 116 µg/mL) in the data set “physchem” (pH 5, fessif) and 1.9 µM (≈ 1.07 µg/mL) in the data set “physchem” (pH 7.4, aqueous buffer). This molecule had a half-life in “in vivo [1]” of 12 h. For the same molecule, the maximum concentration (Cmax) in “in vivo [1]” was found to be 1120 ng/mL.

Take `Cc1n[nH]c2nc(-c3ccc(NS(=O)(=O)c4cc(Cl)ccc4F)cc3)nc(O[C@@H]3CCNC[C@@H]3F)c12` [Compound 29, 5-chloro-2-fluoro-N-(4-(4-(((3S,4R)-3-fluoropiperidin-4-yl)oxy)-3-methyl-1H-pyrazolo[3,4-d]pyrimidin-6-yl)phenyl)benzenesulfonamide]: the inhibition at 20 min, 10 µM was determined as 8.8% at CYP1A2, 26% at CYP2B6, 26% on CYP2D6 and 75% against CYP2C9. In the data set on hERG / SGK1 (whole cell), this molecule returned a hERG/IC50 of 2476. The inhibition at 5 min, 10 µM with CYP3A4 worked out at 54%. In addition, the inhibition at 10 min, 10 µM with CYP3A4 came to 77%. Also, the half-life is 9.7 h in “in vivo [2]” and 1.04 h in the data set “in vivo [1]”. Further, the bioavailability in the data set “in vivo [2]” came out at 0.45%; in “in vivo [1]” it was 8%. Besides, the peak concentration (Cmax) in the data set “in vivo [2]” (Cmax (ng/ml)) amounted to 16 ng/mL; in “in vivo [1]” it was 115 ng/mL. For the same molecule, the solubility at 2 h in “physchem” (pH 5, fessif) came to 245 µM (≈ 131 µg/mL); in “physchem” (pH 7.4, aqueous buffer), 3 µM (≈ 1.6 µg/mL).

Take `Cc1n[nH]c2nc(-c3ccc(NS(=O)(=O)c4cc(F)ccc4F)c(F)c3)nc(NCCN(C)C)c12` [Compound 84, N-[4-(4-[[2-(dimethylamino)ethyl]amino]-3-methyl-1H-pyrazolo[3,4-d]pyrimidin-6-yl)-2-fluorophenyl]-2,5-difluorobenzenesulfonamide]: the inhibition at 20 min, 10 µM is -0.9% against CYP1A2, 1.2% on CYP2B6, 0% on CYP2D6 and 2.2% on CYP2C9. This molecule also had a hERG/IC50 with hERG / SGK1 (whole cell) of 177. The inhibition at 5 min, 10 µM in the data set with CYP3A4 was determined as 0.5%. In the data set with CYP3A4, the inhibition at 10 min, 10 µM stood at 3%. In addition, the half-life in “in vivo [2]” was 3.15 h; in “in vivo [1]”, 2.3 h. Also, the bioavailability in “in vivo [2]” is 17.9%; in the data set “in vivo [1]” it was 22%. The Cmax in “in vivo [2]” (Cmax (ng/ml)) was found to be 2470 ng/mL; in “in vivo [2]” (pK Data in Rat: Cmax), 2470 ng/mL; in “in vivo [1]”, 621 ng/mL. The solubility at 2 h in “physchem” (pH 5, fessif) is 297 µM (≈ 150 µg/mL); in “physchem” (pH 7.4, aqueous buffer), 3.38 µM (≈ 1.71 µg/mL). In data set [3], the “pK Data in Rat: F” value is reported as “Cmax = 2470 ng/mL F = 17.9%”.

Consider `Cc1n[nH]c2nc(-c3ccc(NS(=O)(=O)c4cc(Cl)ccc4F)cc3)nc(O[C@@H]3CCNCC3(F)F)c12` [Compound 44, (R)-5-chloro-N-(4-(4-((3,3-difluoropiperidin-4-yl)oxy)-3-methyl-1H-pyrazolo[3,4-d]pyrimidin-6-yl)phenyl)-2-fluorobenzenesulfonamide], for which the inhibition at 20 min, 10 µM at CYP1A2 was determined as 11%; against CYP2B6, 39%; against CYP2D6 it was 44%; against CYP2C9 it was 92%. Moreover, the inhibition at 5 min, 10 µM with CYP3A4 was 93%. The inhibition at 10 min, 10 µM with CYP3A4 came to 91%.

On to `Cc1n[nH]c2nc(-c3ccc(NS(=O)(=O)c4cc(F)ccc4F)c(Cl)c3)nc(NCCN(C)C)c12` [Compound 85, N-(2-chloro-4-(4-((2-(dimethylamino)ethyl)amino)-3-methyl-1H-pyrazolo[3,4-d]pyrimidin-6-yl)phenyl)-2,5-difluorobenzenesulfonamide], for which the inhibition at 20 min, 10 µM against CYP1A2 is -0.7%; against CYP2B6, 7.7%; on CYP2D6, 1.8%; against CYP2C9 it was 9.4%. In addition, in the data set with hERG / SGK1 (whole cell), the hERG/IC50 came out at 82. In addition, the inhibition at 5 min, 10 µM in the data set with CYP3A4 amounted to 19%. Further, the inhibition at 10 min, 10 µM in the data set on CYP3A4 was -2.9%. This molecule also gave a half-life in the data set “in vivo [2]” of 3.6 h. The molecule further came in with a bioavailability in “in vivo [2]” of 92%. The Cmax in “in vivo [2]” (Cmax (ng/ml)) and in “in vivo [2]” (pK Data in Rat: Cmax) was 2750 ng/mL each time. Besides, the solubility at 2 h in the data set “physchem” (pH 5, fessif) worked out at 315 µM (≈ 164 µg/mL); in the data set “physchem” (pH 7.4, aqueous buffer), 4.5 µM (≈ 2.35 µg/mL). Moreover, the “pK Data in Rat: F” value in data set [3] is on record as “Cmax = 2747 ng/mL F = 92%”.
